Data taken from paper PMC12401824, “Studies on the impact of modifications at the Gln-Trp site in RM2-based GRPR ligands” (EJNMMI Research, 2025).
Where two headings read alike, the source gives them in different places. Starred links: 1 amine or outer side, 2 acyl side, 3 side chain; linkers in the order of their positions; H or OH if unused. Non-standard residues stand in square brackets, D forms with d. Residues, ends and D or L forms follow the SMILES beside them. *: point of attachment. X2 = O=C(O)CN1CCN(CC(=O)O)CCN(CC(=O)NCc2ccc(NC(=O)COCC(=O)*)cc2)CCN(CC(=O)O)CC1; DOTA = O=C(O)CN1CCN(CC(=O)O)CCN(CC(=O)*)CCN(CC(=O)O)CC1; NODAGA = O=C(O)CN1CCN(CC(=O)O)CCN(C(CCC(=O)*)C(=O)O)CC1; NOTA = O=C(O)CN1CCN(CC(=O)O)CCN(CC(=O)*)CC1; Sta = CC(C)C[C@H](N)[C@@H](O)CC(=O)O; Bta = N[C@@H](Cc1csc2ccccc12)C(=O)O; X1 = O=C(CN1CCC(N[*:1])CC1)[*:2]; NHCH(iBu)2 = CC(C)CC(CC(C)C)N*; hSer = N[C@@H](CCO)C(=O)O

How the values were obtained:
GRPR = target: T1, GRPR (Homo sapiens, UniProt P30550); test: GRPR affinity (IC50), competitive binding on PC-3 cells vs [3-[^125I]I-D-Tyr^6]MJ9; settings: 2 h, rt
T1 construct: host or cells: PC-3 cells
T1 sequence (P30550 whole entry): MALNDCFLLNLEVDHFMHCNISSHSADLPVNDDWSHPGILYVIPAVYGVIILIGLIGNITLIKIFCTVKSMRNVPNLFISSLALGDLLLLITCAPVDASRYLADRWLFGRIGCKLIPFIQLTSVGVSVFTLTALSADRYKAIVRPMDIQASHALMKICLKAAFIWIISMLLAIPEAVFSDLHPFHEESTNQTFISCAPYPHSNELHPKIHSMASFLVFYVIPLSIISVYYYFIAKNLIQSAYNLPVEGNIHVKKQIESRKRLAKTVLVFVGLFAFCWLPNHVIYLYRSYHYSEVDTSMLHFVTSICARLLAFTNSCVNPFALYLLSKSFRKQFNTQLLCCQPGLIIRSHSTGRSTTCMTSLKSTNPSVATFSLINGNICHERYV
Description: IC50 values of all compounds were determined according to a previously published procedure. Detailed information on culturing PC-3 cells and on the execution of IC50 studies is provided in the supplementary materials. In brief, competitive binding studies were performed in triplicate on PC-3 cells (1.5 × 10^5 cells in 1 mL/well) after incubation at room temperature for 2 h, using [3-[^125I]I-D-Tyr^6]MJ9 (0.2 nM/well) as radiolabeled reference (n = 3).
After removal of the culture medium, the cells were washed once with 500 µL of HBSS (Hank’s balanced salt solution, Biochrom GmbH, Berlin, Germany, with addition of 1% bovine serum albumin (BSA, v/v)) and left in 200 µL HBSS (1% BSA, v/v) for 9 min at rt for equilibration. Next, 25 µL per well of solutions, containing either HBSS (1% BSA, v/v) as control or the respective compound in increasing concentration (10^-10 M – 10^-4 M in HBSS (1% BSA, v/v)), were added with subsequent addition of 25 µL of [3-[^125I]I-D-Tyr^6]MJ9 (2.0 nm) in HBSS (1% BSA, v/v).
All experiments were performed in triplicate for each concentration. After 2 h incubation at rt, the experiment was terminated by removal of the medium and consecutive rinsing with 300 µL of HBSS (1% BSA, v/v). The media of both steps were combined in one fraction and represent the amount of free radiolabeled reference. Afterwards, the cells were lysed with 300 µL of 1 M NaOH for at least 15 min and united with the 300 µL NaOH of the following washing step. Quantification of bound and free radiolabeled reference was accomplished in a γ-counter. IC50 determination for each conjugate was repeated twice.

[1] = Metabolic stability in vitro in human serum (37 °C, 72 ± 2 h); type: in vitro ADME; settings: ^177Lu-labeled NeoB and UL analogs, n = 3
Description: Metabolic stability in vitro was determined applying a procedure published by Linder et al. that was slightly modified. Immediately after labeling, human serum (200 µL) was added to the labeling solution (~ 30 µL) and the mixture was incubated at 37 °C for 72 ± 2 h. Proteins were precipitated by treatment with ice-cold ethanol (150 µL) and ice-cold acetonitrile (450 µL), followed by centrifugation at 13,000 rpm for 5 min. The supernatants were decanted and further analyzed using radio RP-HPLC.

[2] = Cu-complexed, n = 3, read-out: IC50 (nM), Cu-labeled
[3] = Ga-complexed, n = 3, read-out: IC50 (nM), Ga-labeled

SMILES | IC50 (GRPR; [2]) [nM] | IC50 (GRPR; [3]) [nM] | Percentage of intact compound in human serum [1] [%]
CC(C)CC(CC(C)C)NC(=O)[C@H](Cc1cnc[nH]1)NC(=O)CNC(=O)[C@@H](NC(=O)[C@H](C)NC(=O)[C@H](Cc1c[nH]c2ccccc12)NC(=O)[C@H](CCC(N)=O)NC(=O)[C@@H](Cc1ccccc1)NC(=O)COCC(=O)Nc1ccc(CNC(=O)CN2CCN(CC(=O)O)CCN(CC(=O)O)CCN(CC(=O)O)CC2)cc1)C(C)C [NeoB, reference compound] | – | – | 60.8 ± 1.2
CC(C)CC(CC(C)C)NC(=O)[C@H](Cc1c[nH]cn1)NC(=O)CNC(=O)[C@@H](NC(=O)[C@H](C)NC(=O)[C@](C)(Cc1c[nH]c2ccccc12)NC(=O)[C@H](CCC(N)=O)NC(=O)[C@@H](Cc1ccccc1)NC(=O)COCC(=O)Nc1ccc(CNC(=O)CN2CCN(CC(=O)O)CCN(CC(=O)O)CCN(CC(=O)O)CC2)cc1)C(C)C [[α-Me-Trp^8]NeoB] | – | – | 70.7 ± 2.8
CC(C)CC(CC(C)C)NC(=O)[C@H](Cc1c[nH]cn1)NC(=O)CNC(=O)[C@@H](NC(=O)[C@H](C)NC(=O)[C@H](Cc1c[nH]c2ccccc12)NC(=O)[C@H](CCO)NC(=O)[C@@H](Cc1ccccc1)NC(=O)COCC(=O)Nc1ccc(CNC(=O)CN2CCN(CC(=O)O)CCN(CC(=O)O)CCN(CC(=O)O)CC2)cc1)C(C)C [[Hse^7]NeoB] (X2-[dF][hSer]WAVGH-{NHCH(iBu)2}; N-terminus and C-terminus assumed) | – | – | 57.4 ± 2.1
CC(C)CC(CC(C)C)NC(=O)[C@H](Cc1c[nH]cn1)NC(=O)CNC(=O)[C@@H](NC(=O)[C@H](C)NC(=O)[C@H](Cc1csc2ccccc12)NC(=O)[C@H](CCC(N)=O)NC(=O)[C@@H](Cc1ccccc1)NC(=O)COCC(=O)Nc1ccc(CNC(=O)CN2CCN(CC(=O)O)CCN(CC(=O)O)CCN(CC(=O)O)CC2)cc1)C(C)C [[Bta^8]NeoB] (X2-[dF]Q[Bta]AVGH-{NHCH(iBu)2}; N-terminus and C-terminus assumed) | – | – | 36.2 ± 2.6

Continued, in another order:

IC50 (GRPR; [2]) [nM] | IC50 (GRPR; [3]) [nM] | SMILES | Percentage of intact compound in human serum [1] [%]
4.2 ± 0.6 | 2.3 ± 0.1 | CC(C)C[C@H](NC(=O)C[C@H](O)[C@H](CC(C)C)NC(=O)[C@H](Cc1c[nH]cn1)NC(=O)CNC(=O)[C@@H](NC(=O)[C@H](C)NC(=O)[C@H](Cc1csc2ccccc12)NC(=O)[C@H](CCC(N)=O)NC(=O)[C@@H](Cc1ccccc1)NC(=O)CN1CCC(NC(=O)CN2CCN(CC(=O)O)CCN(CC(=O)O)CCN(CC(=O)O)CC2)CC1)C(C)C)C(N)=O [[Bta^8]RM2] ({DOTA}-[X1][dF]Q[Bta]AVGH[Sta]L-NH2) | –
11.8 ± 2.1 | 7.2 ± 0.7 | CC(C)C[C@H](NC(=O)C[C@H](O)[C@H](CC(C)C)NC(=O)[C@H](Cc1c[nH]cn1)NC(=O)CNC(=O)[C@@H](NC(=O)[C@H](C)NC(=O)[C@H](Cc1c[nH]c2ccccc12)NC(=O)[C@H](CCO)NC(=O)[C@@H](Cc1ccccc1)NC(=O)CN1CCC(NC(=O)CCC(C(=O)O)N2CCN(CC(=O)O)CCN(CC(=O)O)CC2)CC1)C(C)C)C(N)=O (stereo partly drawn) [NODAGA-[des-DOTA, Hse^7]RM2] ({NODAGA}-[X1][dF][hSer]WAVGH[Sta]L-NH2) | –
33 ± 2.7 | 7.7 ± 0.7 | CC(C)C[C@H](NC(=O)C[C@H](O)[C@H](CC(C)C)NC(=O)[C@H](Cc1c[nH]cn1)NC(=O)CNC(=O)[C@@H](NC(=O)[C@H](C)NC(=O)[C@H](Cc1c[nH]c2ccccc12)NC(=O)[C@H](CCO)NC(=O)[C@@H](Cc1ccccc1)NC(=O)CN1CCC(NC(=O)CN2CCN(CC(=O)O)CCN(CC(=O)O)CCN(CC(=O)O)CC2)CC1)C(C)C)C(N)=O [[Hse^7]RM2] ({DOTA}-[X1][dF][hSer]WAVGH[Sta]L-NH2) | –
2.8 ± 0.2 | 1.8 | CC(C)C[C@H](NC(=O)C[C@H](O)[C@H](CC(C)C)NC(=O)[C@H](Cc1c[nH]cn1)NC(=O)CNC(=O)[C@@H](NC(=O)[C@H](C)NC(=O)[C@H](Cc1csc2ccccc12)NC(=O)[C@H](CCC(N)=O)NC(=O)[C@@H](Cc1ccccc1)NC(=O)CN1CCC(NC(=O)CN2CCN(CC(=O)O)CCN(CC(=O)O)CC2)CC1)C(C)C)C(N)=O [NOTA-[des-DOTA, Bta^8]RM2] ({NOTA}-[X1][dF]Q[Bta]AVGH[Sta]L-NH2) | –
14.2 ± 2.7 | 8.4 ± 1 | CC(C)C[C@H](NC(=O)C[C@H](O)[C@H](CC(C)C)NC(=O)[C@H](Cc1c[nH]cn1)NC(=O)CNC(=O)[C@@H](NC(=O)[C@H](C)NC(=O)[C@H](Cc1c[nH]c2ccccc12)NC(=O)[C@H](CCO)NC(=O)[C@@H](Cc1ccccc1)NC(=O)CN1CCC(NC(=O)CN2CCN(CC(=O)O)CCN(CC(=O)O)CC2)CC1)C(C)C)C(N)=O [NOTA-[des-DOTA, Hse^7]RM2] ({NOTA}-[X1][dF][hSer]WAVGH[Sta]L-NH2) | –
